Test system: in vitro fertilized ova (2-cell embryos)
Test: Retransfer study / fertility trial (in vitro fertilized 2-cell embryos transferred into foster mothers)
Assay type: in vivo, mice
Conditions: for No. of Implantation Spots: Odds / No. of Viable Fetuses: Odds: successes divided by failures; for No. of Implantation Spots: Failures: transferred ova minus implantation spots; for No. of Viable Fetuses: Failures: transferred ova minus viable fetuses; for Odds Ratio for comparison to FF-MAS, No. of Implantation Spots / Odds Ratio for comparison to FF-MAS, No. of Viable Fetuses: versus FF-MAS 10 μM
Experimental: In vitro fertilization was performed as described above for the IVF experiment.
One day before the retransfer female recipient mice (foster mothers) in pro-estrus cycle state were mated with vasectomized males in order to trigger pseudogestation. One day later a vaginal check was performed. Animals with a positive, sperm-free vaginal plug (successful mating) entered the study. This day was designated day 0 of gestation (=day 0 after the sterile copulation, day 0 p.c.). […] 2-cell embryos were transferred into the right tube of the foster mothers on day 0 after the sterile copulation under anesthesia. The contra-lateral tube remained unused (check for pseudogestation). The foster mothers were sacrified on day 19 of gestation. The fetuses were removed and examined. The ovaries and uteri were removed immediately to record the number of implantation sites, viable and dead fetuses and resorptions. Apparently non-pregnant uteri were placed in a 10% aqueous solution of ammonium sulfide for about 10 min to stain possible implantation sites in the endometrium. The viable fetuses were individually weighed and their sex determined by inspection of their gonads.
In a fertility trial 269 mice were randomized into 6 groups and implanted with 7-10 in vitro fertilized ova. The in vitro fertilization took place in the presence of vehicle (group 1) or of a substance (groups 2 to 6).
The fertility raising effect of the substances in comparison to the vehicle control was of main interest. Moreover, an improvement compared to the substance FF-MAS was also investigated.
Variables of primary interest are the number of implantation spots and the number of viable fetuses.
The data for implantation spots as well as for viable fetuses have to be considered to have binary character, i.e. it can be expressed in rates or in a number of successes and failures with respect to the number of transferred ova. Therefore, methods as outlined by D. Collett: “Modelling Binary Data”, 2nd edition, Chapman & Hall/CRC, Boca Raton, constitute appropriate approaches to the data analysis.
The odds ratio of one group as compared to the other is defined as: odds ratio (group 1, group 2)=or1,2=odds (group 1)/odds (group 2)
where the odds of a group can be estimated by the number of successes divided by the number of failures in that group.
To reach statements about the significance of any findings, 95% confidence-intervals for the odds ratios are computed as: [ exp(log(or1,2)[…]1.96·se(log(or1,2))); exp(log(or1,2)+1.96·se(log(or1,2)))]
wherein se(log(or1,2)) is the standard error of the log odds ratio (see D. Collett (2003) for the corresponding formula).
As a basis for the computation of odds ratios, the number of successes (i.e., the number of implantation spots of number of viable fetuses) and failures (i.e., the number of transferred ova minus the number of implantation spots or number of viable fetuses) are computed for all groups.

C[C@H](CN1CCSCC1)[C@H]1CC=C2C3=C(CC[C@@]21C)[C@@]1(C)CC[C@H](O)C(C)(C)[C@@H]1CC3 [Compound IA, (20S)-20-[(thiomorpholin-4-yl)methyl]-4,4-dimethyl-5α-pregna-8,14-dien-3β-ol]
No. of Implantation Spots: Success (1 μM): 120
No. of Viable Fetuses: Success (1 μM): 51
Odds Ratio for comparison to vehicle control, No. of Implantation Spots (1 μM): 1.51
Odds Ratio for comparison to vehicle control, No. of Viable Fetuses (1 μM): 1.70
increase of the odds of a successful implantation versus vehicle control (1 μM): 51%
No. of Implantation Spots: Odds (1 μM): 0.38
No. of Viable Fetuses: Odds (1 μM): 0.13
No. of Implantation Spots: Failures (1 μM): 317
No. of Viable Fetuses: Failures (1 μM): 386
Odds Ratio for comparison to FF-MAS, No. of Implantation Spots (1 μM): 1.27
Odds Ratio for comparison to FF-MAS, No. of Viable Fetuses (1 μM): 1.15
No. of Implantation Spots: Success (10 μM): 123
No. of Viable Fetuses: Success (10 μM): 40
Odds Ratio for comparison to vehicle control, No. of Implantation Spots (10 μM): 1.55
Odds Ratio for comparison to vehicle control, No. of Viable Fetuses (10 μM): 1.29
better chance (odds) of a successful implantation versus vehicle control (10 μM): 55%
No. of Implantation Spots: Odds (10 μM): 0.39
No. of Viable Fetuses: Odds (10 μM): 0.10
No. of Implantation Spots: Failures (10 μM): 317
No. of Viable Fetuses: Failures (10 μM): 400
Odds Ratio for comparison to FF-MAS, No. of Implantation Spots (10 μM): 1.30
Odds Ratio for comparison to FF-MAS, No. of Viable Fetuses (10 μM): 0.87
shows significant improvement of odds versus vehicle control, number of implantation spots (95% confidence interval of odds ratio, all doses tested): significant improvement of odds
implantation rate per transferred 2-cell embryos (FIG. 4) (FF-MAS 10 μM, compound IA 1 μM and 10 μM): higher numbers
increase of the odds for a success in terms of viable fetuses versus vehicle control (lower doses (1 μM)): 70%
